Assay results: paper PMC5008412, “A phase I study of indoximod in patients with advanced malignancies” (Oncotarget, 2016)

Columns and labels:
[1] = test system: Lewis lung cancer mouse xenografts; set-up: method as in PMID 15711557, PMID 16166276; details: transplanted Lewis lung cancer mouse xenografts; cited from earlier work
advanced solid tumors = assay: Response evaluation by RECIST 1.1; type: in vivo, human
Procedure: Overall response rate was determined via the criteria described by the RECIST 1.1 guidelines. Baseline evaluations were conducted within 14 days before start of therapy, with CT scans performed within 4 weeks before start of therapy. Patients were then reevaluated every 8 weeks with diagnostic CT scans. The best overall response achieved during study therapy was recorded for each patient. The response data presented herein underwent site radiology review. The duration of response was measured from the time criteria were met for complete or partial response until the first date that recurrent or progressive disease was documented.

[2] = set-up: method as in PMID 17234791; details: combined with cyclophosphamide; compared among forms of 1-methyl-tryptophan; cited from earlier work
[3] = test system: 30 different tumor-associated antigens; assay: Autoantibody titers to tumor-associated antigens (Serametrix protein microarray); type: in vivo, human; details: week 5; of 40 patients evaluated; P < 0.05
Procedure: (§1) Plasma kynurenine and tryptophan levels were measured via high-performance liquid chromatography at baseline and during weeks 1-4 of treatment using previously published methods. Humoral responses toward multiple cancer-testis antigens were analyzed by a proprietary whole protein microarray (Serametrix, Carlsbad, CA) in a 200-μL plasma aliquot, collected at blood draws at baseline and at week 5. Autoantibody titers were reported as relative fluorescence units using human anti-IgG reporter antibodies with blank and predetermined IgG antibody titer control spots using a Perkin Elmer fluorescence scanner.

[4] = Plasma pharmacokinetics (LC-MS/MS, non-compartmental); type: in vivo, human
Procedure: A validated liquid chromatography triple-quadrupole with tandem mass spectrometry method was used to determine levels of indoximod in plasma. The methods were validated per International Conference on Harmonization/Food and Drug Administration guidelines. Plasma samples were prepared for chromatographic injections by protein precipitation as described in Supplement 1.
Plasma concentration-time data for indoximod were analyzed by non-compartmental pharmacokinetic methods using Phoenix WinNonlin 6.3 (Pharsight Corp., Mountain View, CA). Data in the terminal, log-linear phase were analyzed by linear regression to estimate terminal elimination rate constant and half-life. These additional pharmacokinetic parameters were also determined: AUC0-48, AUC0-inf, Cmax, Tmax, terminal half-life (t1/2), apparent clearance, and apparent volume of distribution.

IDO = assay: Plasma kynurenine/tryptophan pharmacodynamics (HPLC); type: in vivo, human
Procedure: as §1

C-reactive protein = C-reactive protein levels; type: in vivo, human
Excerpt: Physical examinations, autoimmunity evaluations, complete blood counts, metabolic panels, and C-reactive protein levels were obtained at baseline and every 2 weeks. Pituitary function tests (thyroid-stimulating hormone, free T4, luteinizing hormone, follicular stimulating hormone, and adrenocortical hormone) and anti-nuclear autoantibody titers were obtained at baseline and every 4 weeks.

[5] = test system: circulating T cell populations; assay: T-cell flow cytometry panel on patient blood; type: in vivo, human
Excerpt: At weeks 1, 3, 5, and 7 of treatment, patient blood was collected into 3 heparinized 10-mL Vacutainer tubes. Samples underwent Ficoll separation and cryopreservation for subsequent analyses. A total of 16 patients across dose levels 4-10 had satisfactory samples collected at all 4 time points for multiparameter flow analyses (see Table 1 for definition of dose levels). Flow cytometry analyses using a T-cell panel (CCR6-FITC, CD45RO-PerCP-Cy5, CD45RA-BV421, HLADR-BV650, CD4-PE, CD25-PECy7, CD127-Alexa 647, CD3- BUV395, Live/Dead Aqua, CD8-BUV737) to determine changes in circulating levels of T-regulatory cells (CD4+CD25+CD127low), naïve (CD45RA+) versus memory (CCR6+/−CD45RO+) CD4 and CD8 T cells, and activated T-cell subsets (HLA-DR+) were carried out in the Moffitt Flow Cytometry Core on an LSRII with compensation beads and fluorescence minus one controls. Gating was done using fluorescence minus one thresholds, and analyses were done using FloJo X software. Mean percentages of the populations were calculated from single, live, CD3+-gated events and analyzed across the 4 time points for the entire group, with lower (dose levels 4-8) versus higher (dose levels 9-10) dose levels compared using ANOVA in Prism GraphPad. P levels of 0.05 indicated significance.

Cn1cc(CC(N)C(=O)O)c2ccccc21 (racemic) [1-methyl-DL-tryptophan]
effect on tumor growth [1]: delaying growth

Cn1cc(C[C@@H](N)C(=O)O)c2ccccc21 [indoximod, 1-methyl-D-tryptophan]
patients with stable disease >6 months (advanced solid tumors; of 48 patients): 5
single-agent antitumor activity (advanced solid tumors; patients with advanced solid tumors): modest
best response (advanced solid tumors; site radiologist assessment, RECIST 1.1): stable disease
in vivo antitumor activity [2]: superior
patients with significantly higher autoantibody titers than at baseline [3]: 12
half-life ([4]; human, plasma, po): 10.5 h
Cmax ([4]; human, plasma, 2000 mg twice/day oral): ~12 µM
dose range with linear dose response of AUC and Cmax ([4]; oral): up to 800 mg once daily
single doses with plateauing of peak serum levels ([4]; oral): ≥ 1600 mg
drug renally cleared ([4]; patients): 20%
oral bioavailability ([4]; patients): good
time at which Cmax occurred ([4]; plasma, oral): 2.9 h
anticipated therapeutic dose of 10 to 15 μM ([4]; serum drug level with current dosing schedules): reached
effect on circulating kynurenine levels (IDO): lack of effect
C reactive protein (CRP) levels (C-reactive protein; across multiple dose levels): increased
mean level of C-reactive protein (C-reactive protein; week 3 of treatment, baseline 3.81 mg/dL, P = 0.02): 5.13 mg/dL
changes in T cell populations (Treg, naive/memory CD4 and CD8, activated subsets) ([5]; baseline through week 7, group as a whole): did not identify any statistically significant changes
dose-dependent changes in T cell populations ([5]; higher dose levels versus lower dose levels): no detectable dose-dependent changes
